Assay [1] concerns Italian ryegrass. The assay can be described thus: Test A postemergence. Format: in vivo, Lolium multiflorum. The following applies: 1000 g ai/ha, 0 to 100 scale, 0 no effect, 100 complete control. The text has this: (§1) Seeds of plant species selected from barnyardgrass (Echinochloa crus-galli), kochia (Kochia scoparia), ragweed (common ragweed, Ambrosia elatior), Italian ryegrass (Lolium multiflorum), large (Lg) crabgrass (Digitaria sanguinalis), giant foxtail (Setaria faberii), morningglory (Ipomoea spp.), pigweed (Amaranthus retroflexus), velvetleaf (Abutilon theophrasti), wheat (Triticum aestivum), and corn (Zea mays) were planted into a blend of loam soil and sand and treated preemergence with a directed soil spray using test chemicals formulated in a non-phytotoxic solvent mixture which included a surfactant.
(§2) At the same time, plants selected from these crop and weed species and also blackgrass (Alopecurus myosuroides), and galium (catchweed bedstraw, Galium aparine) were planted in pots containing the same blend of loam soil and sand and treated with postemergence applications of test chemicals formulated in the same manner. Plants ranged in height from 2 to 10 cm and were in the one- to two-leaf stage for the postemergence treatment. Treated plants and untreated controls were maintained in a greenhouse for approximately 10 days, after which time all treated plants were compared to untreated controls and visually evaluated for injury. Plant response ratings, summarized in Table A, are based on a 0 to 100 scale where 0 is no effect and 100 is complete control. A dash (-) response means no test result.

The next assay concerns blackgrass. Nature of the assay: Test A postemergence. Format: in vivo, Alopecurus myosuroides. The following applies: 1000 g ai/ha, 0 to 100 scale, 0 no effect, 100 complete control.
From the text: as §1, §2

For another assay, the system named is galium. Nature of the assay: Test A postemergence. Format: in vivo, Galium aparine. The following applies: 1000 g ai/ha, 0 to 100 scale, 0 no effect, 100 complete control.
From the text: as §1, §2

The subject of assay [2] is ragweed. The assay can be described thus: Test A postemergence. The following applies: 1000 g ai/ha, 0 to 100 scale, 0 no effect, 100 complete control. Format: in vivo, Ambrosia elatior.
From the text: as §1, §2

The subject of another assay is corn. The assay can be described thus: Test A postemergence. The class given is in vivo, Zea mays. The following applies: 1000 g ai/ha, 0 to 100 scale, 0 no effect, 100 complete control. The essentials: (§3)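 Visual 0–100 rating (100 = complete control) taken about 10 d post-treatment relative to untreated checks. Preemergence: directed soil spray on sown loam/sand pots. Postemergence: seedlings 2–10 cm, 1–2 leaf. Non-phytotoxic solvent formulation with surfactant.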

For assay [3], the system named is giant foxtail. The assay can be described thus: Test A preemergence. The class given is in vivo, Setaria faberii. The following applies: 1000 g ai/ha, 0 to 100 scale, 0 no effect, 100 complete control, approx. 10 days. A digest of the protocol: as §3
Assay [4] has as its system giant foxtail. Nature of the assay: Test A postemergence. The class given is in vivo, Setaria faberii. The following applies: 1000 g ai/ha, 0 to 100 scale, 0 no effect, 100 complete control. The essentials: as §3
In assay [5] the test system is barnyardgrass. The assay can be described thus: Test A preemergence. The class given is in vivo, Echinochloa crus-galli. The following applies: 1000 g ai/ha, 0 to 100 scale, 0 no effect, 100 complete control; for Barnyardgrass plant response rating: approx. 10 days. The essentials: as §3
The subject of another assay is wheat. The assay can be described thus: Test A postemergence. Format: in vivo, Triticum aestivum. The following applies: 1000 g ai/ha, 0 to 100 scale, 0 no effect, 100 complete control. A digest of the protocol:
as §3

In assay [6] the test system is Italian ryegrass. Nature of the assay: Test A preemergence. Format: in vivo, Lolium multiflorum. The following applies: 1000 g ai/ha, 0 to 100 scale, 0 no effect, 100 complete control, approx. 10 days.
From the text: as §1, §2

Assay [7] relates to kochia. The assay can be described thus: Test A preemergence. Format: in vivo, Kochia scoparia. The following applies: 1000 g ai/ha, 0 to 100 scale, 0 no effect, 100 complete control, approx. 10 days.
From the text: as §1, §2

Assay [8] deals with ragweed. The assay can be described thus: Test A preemergence. The following applies: 1000 g ai/ha, 0 to 100 scale, 0 no effect, 100 complete control, approx. 10 days. The class given is in vivo, Ambrosia elatior.
From the text: as §1, §2

In assay [9] the test system is pigweed. The assay can be described thus: Test A preemergence. Format: in vivo, Amaranthus retroflexus. The following applies: 1000 g ai/ha, 0 to 100 scale, 0 no effect, 100 complete control, approx. 10 days. A digest of the protocol:
as §3

Assay [10] deals with pigweed. Nature of the assay: Test A postemergence. The class given is in vivo, Amaranthus retroflexus. The following applies: 1000 g ai/ha, 0 to 100 scale, 0 no effect, 100 complete control. The essentials: as §3
Assay [11] has as its system barnyardgrass. Nature of the assay: Test A postemergence. The class given is in vivo, Echinochloa crus-galli. The following applies: 1000 g ai/ha, 0 to 100 scale, 0 no effect, 100 complete control. A digest of the protocol: as §3
The subject of assay [12] is kochia. Nature of the assay: Test A postemergence. Format: in vivo, Kochia scoparia. The following applies: 1000 g ai/ha, 0 to 100 scale, 0 no effect, 100 complete control.
From the text: as §1, §2

`CCN(CC)C(=O)c1cccc(Oc2ncc(Cl)cn2)c1-n1cc(C(F)(F)F)cn1` [Compound 263]: the “Plant response rating, Ryegrass, Italian” value in the assay on Italian ryegrass [1] was 0. Besides, the “Plant response rating, Blackgrass” value in the assay with blackgrass is given as 20. In the assay on galium, the “Plant response rating, Galium” value came to 10. For the same molecule, the “Plant response rating, Ragweed” value in the assay with ragweed [2] is on record as 0. In addition, in the assay on corn, the “Plant response rating, Corn” value turned out to be 0. In addition, the “Foxtail, Giant plant response rating” value in the assay on giant foxtail [3] came to 50. The “Plant response rating, Foxtail, Giant” value in the assay with giant foxtail [4] is on record as 0. Besides, the “Barnyardgrass plant response rating” value in the assay on barnyardgrass [5] is 0. Moreover, the “Plant response rating, Wheat” value in the assay on wheat turned out to be 0. In addition, in the assay with Italian ryegrass [6], the “Ryegrass, Italian plant response rating” value came to 0. The “Kochia plant response rating” value in the assay with kochia [7] is listed as 20. Moreover, the “Ragweed plant response rating” value in the assay with ragweed [8] was 0. In addition, the “Pigweed plant response rating” value with pigweed [9] is listed as 10. The “Plant response rating, Pigweed” value in the assay with pigweed [10] is listed as 10. The “Plant response rating, Barnyardgrass” value in the assay with barnyardgrass [11] amounted to 0. In addition, the “Plant response rating, Kochia” value in the assay on kochia [12] worked out at 10.
On to `Fc1cccc(Oc2ncc(Cl)cn2)c1-n1cc(-c2cccc(C(F)(F)F)c2)nn1` [Compound 276], for which, in the assay with Italian ryegrass [1], the “Plant response rating, Ryegrass, Italian” value is 0. Also, the “Plant response rating, Blackgrass” value with blackgrass worked out at 20. For the same molecule, the “Plant response rating, Galium” value in the assay with galium was determined as 20. For the same molecule, the “Plant response rating, Ragweed” value in the assay with ragweed [2] was 30. Besides, the “Plant response rating, Corn” value in the assay with corn worked out at 10. The “Foxtail, Giant plant response rating” value in the assay on giant foxtail [3] is listed as 0. In addition, the “Plant response rating, Foxtail, Giant” value in the assay with giant foxtail [4] came to 20. The “Barnyardgrass plant response rating” value with barnyardgrass [5] is listed as 0. In addition, the “Plant response rating, Wheat” value in the assay on wheat was found to be 0. Besides, in the assay on Italian ryegrass [6], the “Ryegrass, Italian plant response rating” value worked out at 0. The “Kochia plant response rating” value in the assay with kochia [7] is reported as 0. Besides, in the assay with ragweed [8], the “Ragweed plant response rating” value is 0. Moreover, the “Pigweed plant response rating” value with pigweed [9] is 0. In addition, in the assay with pigweed [10], the “Plant response rating, Pigweed” value stood at 80. The “Plant response rating, Barnyardgrass” value in the assay with barnyardgrass [11] is reported as 20. The “Plant response rating, Kochia” value with kochia [12] is on record as 40.
With `Fc1cccc(Oc2ncc(Cl)cn2)c1-n1cc(C2CCCCC2)nn1` [Compound 102], the “Plant response rating, Ryegrass, Italian” value in the assay on Italian ryegrass [1] came out at 0. The “Plant response rating, Blackgrass” value in the assay with blackgrass is 40. Moreover, in the assay on galium, the “Plant response rating, Galium” value was 70. The “Plant response rating, Ragweed” value with ragweed [2] stood at 20. Moreover, the “Plant response rating, Corn” value in the assay on corn was 20. The “Foxtail, Giant plant response rating” value with giant foxtail [3] came to 100. Also, the “Plant response rating, Foxtail, Giant” value with giant foxtail [4] was found to be 40. For the same molecule, the “Plant response rating, Barnyardgrass” value in the assay with barnyardgrass [5] and in the assay on barnyardgrass [11] was 50 in each case. Further, the “Plant response rating, Wheat” value in the assay with wheat came to 0. Further, in the assay on Italian ryegrass [6], the “Ryegrass, Italian plant response rating” value is given as 0. Further, in the assay with kochia [7], the “Kochia plant response rating” value is on record as 0. For the same molecule, the “Ragweed plant response rating” value in the assay with ragweed [8] came out at 0. The “Pigweed plant response rating” value in the assay with pigweed [9] was 20. Further, the “Plant response rating, Pigweed” value in the assay with pigweed [10] is listed as 80. In addition, the “Plant response rating, Kochia” value in the assay with kochia [12] is 30.

Source of the values: patent US9695155B2, “Herbicidal substituted pyrimidinyloxy benzene compounds” (E. I. DU PONT DE NEMOURS AND COMPANY, priority 2013, dated 2017).
